The values that follow come from paper PMC6830257, “Optimisation of novel 4, 8-disubstituted dihydropyrimido[5,4-b][1,4]oxazine derivatives as potent GPR 119 agonists” (Journal of Enzyme Inhibition and Medicinal Chemistry, 2019).

Where two headings read alike, the source gives them in different places. Some results are limits rather than exact numbers.

One assay deals with T1, human GPR119 (Homo sapiens, UniProt Q8TDV5).
T1 construct: expressed in transfected cells; host or cells: CHO K1
T1 sequence (Q8TDV5 1-335): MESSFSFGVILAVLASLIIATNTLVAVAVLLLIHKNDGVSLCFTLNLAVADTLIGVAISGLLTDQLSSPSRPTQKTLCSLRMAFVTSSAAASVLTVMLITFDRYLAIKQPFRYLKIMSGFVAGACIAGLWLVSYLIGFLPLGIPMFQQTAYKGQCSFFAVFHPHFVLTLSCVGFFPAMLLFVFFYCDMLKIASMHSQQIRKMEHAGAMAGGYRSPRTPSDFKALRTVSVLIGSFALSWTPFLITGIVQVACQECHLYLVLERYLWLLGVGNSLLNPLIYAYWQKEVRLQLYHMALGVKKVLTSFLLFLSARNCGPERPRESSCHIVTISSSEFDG
Briefly: hGPR119 agonistic activity, LANCE Ultra cAMP accumulation assay in CHO K1 cells stably expressing human GPR119. The class given is cell-based. As to conditions: for Emax: CHO-K1, 1 h, read-out: GPR119 activation %max (inherent activity). As to the method: CHO K1 cells stably transfected with human GPR119 were grown at 37 °C, […] and 5% CO2 in 75 cm flasks containing DMEM/F12 (1:1) media with added 10% FBS (Gibco®), Geneticin (Gibco®) and grown until 90% confluent. Cells were then washed (PBS), lifted with cell dissociation solution (Invtrogen®), counted and used for cAMP accumulation assays and/or passaging (1:10). Following the manufacturer’s instructions for the LANCE® Ultra cAMP assay (Perkin Elmer), cell transfected with hGPR119 were centrifuged (1000 rpm, 5 min), re-suspended in cAMP assay buffer (HBSS, 0.1% BSA, 0.5 mM IBMX and 5 mM HEPES) and seeded at 5000 cells/well in optiplate-384 (Perkin Elmer). […] Cell lysis buffers (4X Eu-cAMP tracer solution and 4X ULight™-anti-cAMP solution) were added to each well, and the plates were incubated at r. t. for 1 h before being read on Envision (Perkin Elmer). The assay was performed for three replicates for each concentration.
Background: In TR-FRET formats the signal depends on donor and acceptor labels being close together.

A further assay relates to C57BL/6N mice. As to the kind of experiment: oral glucose tolerance test (oGTT), single dose, in C57BL/6N mice. In kind it is in vivo. The conditions noted are these: for blood glucose AUC0–120 min: mean ± SE, n = 8, vehicle 24.69 ± 3.08; for reduction of blood glucose AUC0–120 min: oGTT 3 g/kg glucose 4 h after dose, vs vehicle, C57BL/6N mice; for blood glucose reduction effect: single dose 15 and 30 mg/kg, oGTT in C57BL/6N mice. As to the method:
Figure 2. Single dose of compounds 10 and 15 on oGTT in C57BL/6N mice.
AUC0–2h(mmol/L) = (BG0+BG15)×0.25/2 + (BG15+BG30)×0.25/2 + (BG30+BG60)×0.5/2 + (BG60+BG90)×0.5/2 + (BG90+BG120)×0.5/2.

For the next assay, the system named is GPR119. The arrangement: method as in PMID 30100020, PMID 30685641. The conditions noted are these: earlier work of the authors ref 31, 32; read-out: EC50 (GPR119 agonistic potency); cited from earlier work.
A further assay concerns mice. Also noted: method as in PMID 30100020, PMID 30685641. The conditions noted are these: compared with positive control ref 31, 32; cited from earlier work.
Setting [1] is: cAMP stimulation % compared to maximal effect of GSK1292263.
Setting [2] is: human GPR119 in CHO K1 cells, cAMP, 1 h incubation, read-out: GPR119 activation EC50.

Turning to `CC(C)c1noc(N2CCC(COc3ccc(-c4ccc(S(C)(=O)=O)cc4)nc3)CC2)n1` [GSK-1292263, reference compound], the 50% effective concentration (EC50) on human GPR119 came out at 6.6 nM.

`CC(C)(C)OC(=O)N1CCN(C(=O)CN2[C@@H]3CC[C@H]2C[C@@H](Nc2ncnc4c2OCCN4c2ccc(C#N)cc2F)C3)CC1` [Compound 20, tert-Butyl 4-(2-((endo)-3-((8-(4-cyano-2-fluorophenyl)-7,8-dihydro-6H-pyrimido[5,4-b][1,4]oxazin-4-yl)amino)-8-azabicyclo[3.2.1]octan-8-yl)acetyl)piperazine-1-carboxylate]: on human GPR119 (setting [1]), the “GPR119 activation %max (inherent activity)” value (“GPR119 activation %max” below) worked out at 79.6%. Also, the EC50 at human GPR119 (setting [2]) stood at 82 nM.

As to `N#Cc1ccc(N2CCOc3c(N[C@H]4C[C@H]5CC[C@@H](C4)N5c4ncc(Cl)cn4)ncnc32)c(F)c1` [Compound 17, 4-(4-(((endo)-8-(5-Chloropyrimidin-2-yl)-8-azabicyclo[3.2.1]octan-3-yl)amino)-6,7-dihydro-8H-pyrimido[5,4-b][1,4]oxazin-8-yl)-3-fluorobenzonitrile], on human GPR119 (setting [1]), the “GPR119 activation %max” value is listed as 71.2%. The EC50 at human GPR119 (setting [2]) is 250 nM.

With `CC(C)(C)OC(=O)N1C2CCC1CC(Nc1ncnc3c1OCCN3c1ccc(C#N)cc1F)C2` (stereo not drawn) [Compound 10, tert-Butyl (endo)-3-((8-(4-cyano-2-fluorophenyl)-7,8-dihydro-6H-pyrimido[5,4-b][1,4]oxazin-4-yl)amino)-8-azabicyclo[3.2.1]octane-8-carboxylate], at human GPR119, the 50% effective concentration (EC50) turned out to be 13 nM and the Emax was 83.9%. Besides, in the assay on C57BL/6N mice (15 mg/kg single dose), the blood glucose AUC0–120 min came to 22.1 ± 4.28 mmol·h/L and the “reduction of blood glucose AUC0–120 min” value is listed as 10.7%. In the assay on C57BL/6N mice (30 mg/kg single dose), the blood glucose AUC0–120 min worked out at 20.1 ± 2.27 mmol·h/L and the “reduction of blood glucose AUC0–120 min” value amounted to 18.8%. Besides, in the assay on C57BL/6N mice, the “blood glucose reduction effect” value is on record as “dose-dependent manner”.

Turning to `N#Cc1ccc(N2CCOc3c(NC4CC5CCC(C4)N5CC(=O)N4CCn5c(nnc5C(F)(F)F)C4)ncnc32)c(F)c1` (stereo not drawn) [Compound 18, 3-Fluoro-4-(4-(((endo)-8-(2-oxo-2-(3-(trifluoromethyl)-5,6-dihydro-[1,2,4]triazolo[4,3-a]pyrazin-7(8H)-yl)ethyl)-8-azabicyclo[3.2.1]octan-3-yl)amino)-6,7-dihydro-8H-pyrimido[5,4-b][1,4]oxazin-8-yl)benzonitrile], the “GPR119 activation %max” value at human GPR119 (setting [1]) stood at 100%. For the same compound, the EC50 at human GPR119 (setting [2]) came out at 110 nM.

For `CC(C)(C)OC(=O)N1CCC(Nc2ncnc3c2OCCN3c2ccc(C#N)cc2F)CC1` [Compound 12, tert-Butyl 4-((8-(4-cyano-2-fluorophenyl)-7,8-dihydro-6H-pyrimido[5,4-b][1,4]oxazin-4-yl)amino)piperidine-1-carboxylate], on human GPR119 (setting [1]), the Emax came out at 63.5%. In addition, the concentration giving a half-maximal response (EC50) on human GPR119 (setting [2]) came out at 200 nM.

For the compound `CC(C)OC(=O)N1CCC(Nc2ncnc3c2OCCN3c2ccc(C#N)cc2F)CC1` [Compound 22, Isopropyl 4-((8-(4-cyano-2-fluorophenyl)-7,8-dihydro-6H-pyrimido[5,4-b][1,4]oxazin-4-yl)amino)piperidine-1-carboxylate], on human GPR119 (setting [1]), the Emax was 66.1%. On human GPR119 (setting [2]), the EC50 was found to be 120 nM.

Take `N#Cc1ccc(N2CCOc3c(NC4CCN(c5ncc(Cl)cn5)CC4)ncnc32)c(F)c1` [Compound 24, 4-(4-((1-(5-Chloropyrimidin-2-yl)piperidin-4-yl)amino)-6,7-dihydro-8H-pyrimido[5,4-b][1,4]oxazin-8-yl)-3-fluorobenzonitrile]: on human GPR119 (setting [1]), the Emax stood at 62.7%. The EC50 on human GPR119 (setting [2]) turned out to be 40 nM.

Consider `CC(C)OC(=O)N1[C@@H]2CC[C@H]1C[C@@H](Nc1ncnc3c1OCCN3c1ccc(C#N)cc1F)C2` [Compound 15, Isopropyl (endo)-3-((8-(4-cyano-2-fluorophenyl)-7,8-dihydro-6H-pyrimido[5,4-b][1,4]oxazin-4-yl)amino)-8-azabicyclo[3.2.1]octane-8-carboxylate], for which, at human GPR119 (setting [1]), the “GPR119 activation %max” value is on record as 146.3%. On human GPR119 (carbamate substituted derivatives, 15 vs. 22), the “EC50 ratio compound 15 vs. compound 22” value worked out at 10 times. The EC50 at human GPR119 (setting [2]) was 12 nM. Besides, in the assay on C57BL/6N mice (15 mg/kg single dose), the blood glucose AUC0–120 min came to 21.1 ± 3.92 mmol·h/L and the “reduction of blood glucose AUC0–120 min” value is on record as 14.5%. In the assay with C57BL/6N mice (30 mg/kg single dose), the blood glucose AUC0–120 min came out at 18.9 ± 2.58 mmol·h/L and the “reduction of blood glucose AUC0–120 min” value is given as 23.4%. The “blood glucose reduction effect” value in the assay with C57BL/6N mice is “dose-dependent manner”.

Regarding `CC(C)(C)OC(=O)N1[C@@H]2CC[C@H]1C[C@@H](Nc1ncnc3c(Nc4ccc(S(C)(=O)=O)cc4F)ncnc13)C2` [Compound 1], in the assay on GPR119, the concentration giving a half-maximal response (EC50) is 2.2 nM. In the assay with mice, the “glucose-lowering effect in oGTT” value is listed as “did not show the significant glucose-lowering effect”.

Regarding `CC(C)(C)OC(=O)N[C@@H]1CCCN(C(=O)CN2[C@@H]3CC[C@H]2C[C@@H](Nc2ncnc4c2OCCN4c2ccc(C#N)cc2F)C3)C1` [Compound 19, tert-Butyl ((R)-1-(2-((endo)-3-((8-(4-cyano-2-fluorophenyl)-7,8-dihydro-6H-pyrimido[5,4-b][1,4]oxazin-4-yl)amino)-8-azabicyclo[3.2.1]octan-8-yl)acetyl)piperidin-3-yl)carbamate], the “GPR119 activation %max” value at human GPR119 (setting [1]) turned out to be 75.6%. Besides, at human GPR119 (setting [2]), the EC50 was 68 nM.

As for `CCc1cnc(N2CCC(Nc3ncnc4c3OCCN4c3ccc(C#N)cc3F)CC2)nc1` [Compound 23, 4-(4-((1-(5-Ethylpyrimidin-2-yl)piperidin-4-yl)amino)-6,7-dihydro-8H-pyrimido[5,4-b][1,4]oxazin-8-yl)-3-fluorobenzonitrile], the Emax at human GPR119 (setting [1]) stood at 70.7%. Also, the EC50 at human GPR119 (setting [2]) is 44 nM.

For `CC(C)(C)OC(=O)N1C2CCCC1CC(Nc1ncnc3c1OCCN3c1ccc(C#N)cc1F)C2` (centres unmarked) [Compound 13, tert-Butyl 3-((8-(4-cyano-2-fluorophenyl)-7,8-dihydro-6H-pyrimido[5,4-b][1,4]oxazin-4-yl)amino)-9-azabicyclo[3.3.1]nonane-9-carboxylate], the Emax on human GPR119 (setting [1]) worked out at 22.7%. Moreover, the EC50 at human GPR119 (setting [2]) is over 10000 nM.

In the case of `CC(C)(C)OC(=O)N1CCN(C(=O)CN2CCC(Nc3ncnc4c3OCCN4c3ccc(C#N)cc3F)CC2)CC1` [Compound 25, tert-Butyl 4-(2-(4-((8-(4-cyano-2-fluorophenyl)-7,8-dihydro-6H-pyrimido[5,4-b][1,4]oxazin-4-yl)amino)piperidin-1-yl)acetyl)piperazine-1-carboxylate], the Emax on human GPR119 (setting [1]) stood at 100%. Further, the half-maximal effective concentration (EC50) at human GPR119 (setting [2]) was 90 nM.

As for `CC(C)(C)OC(=O)N1[C@@H]2CC[C@H]1C[C@@H](Nc1ncnc3c(Nc4ccc(C#N)cc4F)ncnc13)C2` [Compound 2], in the assay with GPR119, the EC50 was 8.1 nM. Also, the “glucose-lowering effect in oGTT” value in the assay on mice is given as “did not show the significant glucose-lowering effect”.

On to `CC(C)(C)OC(=O)N1C2CCC1CC(CNc1ncnc3c1OCCN3c1ccc(C#N)cc1F)C2` (stereo not drawn) [Compound 11, tert-Butyl (exo)-3-(((8-(4-cyano-2-fluorophenyl)-7,8-dihydro-6H-pyrimido[5,4-b][1,4]oxazin-4-yl)amino)methyl)-8-azabicyclo[3.2.1]octane-8-carboxylate], for which, at human GPR119 (setting [1]), the Emax is 45.9%. Further, the 50% effective concentration (EC50) on human GPR119 (setting [2]) came to 1800 nM.

In the case of `CCc1cnc(N2[C@@H]3CC[C@H]2C[C@@H](Nc2ncnc4c2OCCN4c2ccc(C#N)cc2F)C3)nc1` [Compound 16, 4-(4-(((endo)-8-(5-Ethylpyrimidin-2-yl)-8-azabicyclo[3.2.1]octan-3-yl)amino)-6,7-dihydro-8H-pyrimido[5,4-b][1,4]oxazin-8-yl)-3-fluorobenzonitrile], the “GPR119 activation %max” value on human GPR119 (setting [1]) is 60.5%. Besides, the EC50 at human GPR119 (setting [2]) came to 130 nM.

As a reminder, the EC50 is the concentration needed to bring the measured effect to its halfway point.
